Reference: patent publication US6861426B2, “Crystal forms of lamotrigine and processes for their preparations” (Teva Pharmaceutical Industries Ltd., priority 2001, dated 2005)

Test: Heating of Lamotrigine Solvates/Hydrates (annealing; crystal form afterwards)
Format: physicochemical
Conditions: resulting crystal form
Description: All X-ray powder diffraction patterns were obtained by methods known in the art. One method employs the use of a Philips X-Ray powder diffractometer, Goniometer model 1050/70 at a scanning speed of 20 per minute. Another method employs the use of a Scintag X'TRA X-ray powder diffractometer, equipped with a solid state Si(Li) detector thermoelectrically cooled, at a scanning speed of 30 min.^−1 Scanning range […] two-theta. Copper radiation of 1.5418 Å was used. According to one embodiment, the present invention provides a process for preparing lamotrigine form A including heating lamotrigine solvates at temperatures elevated enough to remove all the solvent from the crystal, usually above 100° C. for a period of about 2 hours, preferably above 110° C. for a period of about 1 hour, more preferably at about 150° C. for a period of about ½ hour. [table]

Crystal form after annealing at 80° C. 60 min (solid heated at 80° C. for 60 min) | Crystal form after annealing at 110° C. 45 min (solid heated at 110° C. for 45 min) | SMILES
Amorphous |  | Nc1nnc(-c2cccc(Cl)c2Cl)c(N)n1 [J ispropanolate, 6-(2,3-Dichlorophenyl)-1,2,4-triazine-3,5-diamine]
 | A + P | Nc1nnc(-c2cccc(Cl)c2Cl)c(N)n1 [C DMF monosolvate, 6-(2,3-Dichlorophenyl)-1,2,4-triazine-3,5-diamine]
